Assay results as given in patent US20260256705A1, “LIPID NANOPARTICLE FORMULATIONS FOR VACCINES” (GLOBAL LIFE SCIENCES SOLUTIONS CANADA ULC, priority 2022, published 2026).

Test system: Luciferase mRNA
Assay: Intravenous protein replacement model, Luciferase mRNA LNP
Assay type: in vivo, mice
Conditions: intravenous 0.1 mg/kg, four hours post administration
Description: Two different LNPs according to embodiments of the invention were injected into mice intravenously at 0.1 mg/kg. The payload was Luciferase·mRNA (Trilink-CLEANCAP™ FLuc mRNA (5 moU), Cat #L-7202). The top row of photographs in FIG. 8 showing fluorescence at four hours post administration was achieved by intravenous administration of LNP comprising PNI 516 30%, DPSC 56%, cholesterol 12.5% and DMG-PEG 1.5%. The bottom row in FIG. 8, which is brighter, was achieved by LNP comprising PNI 580 30%, DSPC 56%, cholesterol 12.5%, and DMG-PEG-1.5%.

## CCCCCCCCC(CCCCCC)C(=O)O[C@@H]1[C@@H](OC(=O)C(CCCCCC)CCCCCCCC)CO[C@@H]1COC(=O)CCCN(C)C (stereo partly drawn) [PNI 580, (2R,3S,4S)-2-(((4-(dimethylamino)butanoyl)oxy)methyl)tetrahydrofuran-3,4-diyl bis(2-hexyldecanoate)]
  protein expression in vivo (fluorescence): slightly more effective
